Patent publication US5593984A, “Cephalosporin derivatives” (Yuhan Corporation, priority 1992, dated 1997)
In brackets after ≈: the same amount, converted by molar mass.

What was measured:
Format in all cases: cell-based
[1] = tested on: Prov. stuartii IFO 12930; experiment: MIC by agar dilution, Prov. stuartii IFO 12930; settings: Providencia stuartii, IFO12930, 17 h, Mueller-Hinton agar, read-out: Minimal Inhibitory Concentration (MIC)
How it was run: (§1)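 Each compound was serially halved and mixed into Mueller-Hinton agar medium. Bacteria (10^6 CFU per ml) were then inoculated by replicator, and growth was assessed after incubation for 17±1 hours at 35°-37° C.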

[2] = tested on: Ps. aeruginosa NCTC 10490; experiment: MIC by agar dilution, Ps. aeruginosa NCTC 10490; settings: Pseudomonas aeruginosa, NCTC10490, 17 h, Mueller-Hinton agar, read-out: Minimal Inhibitory Concentration (MIC)
How it was run: as §1

[3] = tested on: K. pneumoniae NCTC 9632; experiment: MIC by agar dilution, K. pneumoniae NCTC 9632; settings: Klebsiella pneumoniae, NCTC9632, 17 h; K. pneumoniae NCTC 9632; agar dilution, Mueller-Hinton agar; read-out: Minimal Inhibitory Concentration (MIC)
How it was run: as §1

[4] = tested on: Ent. cloacae IFO 13535; experiment: MIC by agar dilution, Ent. cloacae IFO 13535; settings: Enterobacter cloacae, IFO13535, 17 h; Ent. cloacae IFO 13535; agar dilution, Mueller-Hinton agar; read-out: Minimal Inhibitory Concentration (MIC)
How it was run: as §1

[5] = tested on: Staph. aureus C-5216; experiment: MIC by agar dilution, Staph. aureus C-5216; settings: Staphylococcus aureus, C5216, 17 h, Mueller-Hinton agar, read-out: Minimal Inhibitory Concentration (MIC)
How it was run: as §1

[6] = tested on: E. coli No. 29; experiment: MIC by agar dilution, E. coli No. 29; settings: Escherichia coli, 17 h; E. coli No. 29; agar dilution, Mueller-Hinton agar; read-out: Minimal Inhibitory Concentration (MIC)
How it was run: as §1

[7] = tested on: Ent. aerogenes IFO 12979; experiment: MIC by agar dilution, Ent. aerogenes IFO 12979; settings: Klebsiella aerogenes, IFO12979, 17 h, Mueller-Hinton agar, read-out: Minimal Inhibitory Concentration (MIC)
How it was run: as §1

[8] = tested on: Ps. aeruginosa ATCC 10145; experiment: MIC by agar dilution, Ps. aeruginosa ATCC 10145; settings: Pseudomonas aeruginosa, ATCC10145, 17 h, Mueller-Hinton agar, read-out: Minimal Inhibitory Concentration (MIC)
How it was run: as §1

[9] = tested on: Staph. aureus C-57; experiment: MIC by agar dilution, Staph. aureus C-57; settings: Staphylococcus aureus, C57, 17 h, Mueller-Hinton agar, read-out: Minimal Inhibitory Concentration (MIC)
How it was run: as §1

[10] = tested on: E. coli NIHJ JC-2; experiment: MIC by agar dilution, E. coli NIHJ JC-2; settings: Escherichia coli, NIHJJC2, 17 h; E. coli NIHJ JC-2; agar dilution, Mueller-Hinton agar; read-out: Minimal Inhibitory Concentration (MIC)
How it was run: as §1

[11] = tested on: E. coli DY-1; experiment: MIC by agar dilution, E. coli DY-1; settings: Escherichia coli, DY1, 17 h; E. coli DY-1; agar dilution, Mueller-Hinton agar; read-out: Minimal Inhibitory Concentration (MIC)
How it was run: as §1

[12] = tested on: Staph. aureus C-5113; experiment: MIC by agar dilution, Staph. aureus C-5113; settings: Staphylococcus aureus, C5113, 17 h, Mueller-Hinton agar, read-out: Minimal Inhibitory Concentration (MIC)
How it was run: as §1

[13] = tested on: Staph. aureus ATCC 6538P; experiment: MIC by agar dilution, Staph. aureus ATCC 6538P; settings: Staphylococcus aureus, ATCC6538P, 17 h; Staph. aureus ATCC 6538P; agar dilution, Mueller-Hinton agar; read-out: Minimal Inhibitory Concentration (MIC)
How it was run: as §1

[14] = tested on: M. morganii DY-1; experiment: MIC by agar dilution, M. morganii DY-1; settings: Morganella morganii, DY1, 17 h; M. morganii DY-1; agar dilution, Mueller-Hinton agar; read-out: Minimal Inhibitory Concentration (MIC)
How it was run: as §1

[15] = tested on: B. subtilis ATCC 6633; experiment: MIC by agar dilution, B. subtilis ATCC 6633; settings: Bacillus subtilis, ATCC6633, 17 h; B. subtilis ATCC 6633; agar dilution, Mueller-Hinton agar; read-out: Minimal Inhibitory Concentration (MIC)
How it was run: as §1

[16] = tested on: S. epidermidis ATCC 12228; experiment: MIC by agar dilution, S. epidermidis ATCC 12228; settings: Staphylococcus epidermidis, ATCC12228, 17 h; S. epidermidis ATCC 12228; agar dilution, Mueller-Hinton agar; read-out: Minimal Inhibitory Concentration (MIC)
How it was run: as §1

[17] = tested on: Ser. marcescens IFO 12648; experiment: MIC by agar dilution, Ser. marcescens IFO 12648; settings: Serratia marcescens, IFO12648, 17 h; Ser. marcescens IFO 12648; agar dilution, Mueller-Hinton agar; read-out: Minimal Inhibitory Concentration (MIC)
How it was run: as §1

[18] = tested on: P. vulgaris NCTC 8313; experiment: MIC by agar dilution, P. vulgaris NCTC 8313; settings: Proteus vulgaris, NCTC8313, 17 h; P. vulgaris NCTC 8313; agar dilution, Mueller-Hinton agar; read-out: Minimal Inhibitory Concentration (MIC)
How it was run: as §1

[19] = tested on: Ps. aeruginosa DY-2; experiment: MIC by agar dilution, Ps. aeruginosa DY-2; settings: Pseudomonas aeruginosa, DY2, 17 h; Ps. aeruginosa DY-2; agar dilution, Mueller-Hinton agar; read-out: Minimal Inhibitory Concentration (MIC)
How it was run: as §1

[20] = tested on: Staph. aureus Smith; experiment: MIC by agar dilution, Staph. aureus Smith; settings: Staphylococcus aureus, 17 h, Mueller-Hinton agar, read-out: Minimal Inhibitory Concentration (MIC)
How it was run: as §1

| MIC [1] | MIC [2] | MIC [3] | MIC [4] | MIC [5] | MIC [6] | MIC [7] | MIC [8] | MIC [9] | MIC [10] | MIC [11] | MIC [12] | MIC [13] | MIC [14] | MIC [15] | MIC [16] | MIC [17] | MIC [18] | MIC [19] | MIC [20] | SMILES |
| --- | --- | --- | --- | --- | --- | --- | --- | --- | --- | --- | --- | --- | --- | --- | --- | --- | --- | --- | --- | --- |
| ≤ 0.006 µg/mL | 0.2 µg/mL (≈ 0.33 µM) | ≤ 0.006 µg/mL | 0.012 µg/mL (≈ 0.0198 µM) | 0.78 µg/mL (≈ 1.29 µM) | ≤ 0.006 µg/mL | ≤ 0.006 µg/mL | 0.78 µg/mL (≈ 1.29 µM) | 25 µg/mL (≈ 41.2 µM) | ≤ 0.006 µg/mL | ≤ 0.006 µg/mL | 0.78 µg/mL (≈ 1.29 µM) | 0.2 µg/mL (≈ 0.33 µM) | ≤ 0.006 µg/mL | 0.05 µg/mL (≈ 0.0824 µM) | 0.05 µg/mL (≈ 0.0824 µM) | ≤ 0.006 µg/mL | ≤ 0.006 µg/mL | 6.25 µg/mL (≈ 10.3 µM) | 0.78 µg/mL (≈ 1.29 µM) | NCCSc1ccc2c[n+](CC3=C(C(=O)[O-])N4C(=O)C(NC(=O)C(=NOCF)c5csc(N)n5)C4SC3)ccn12 (stereo not drawn) [Ex. 29, 7-β-[(Z)-2-(2-aminothiazol-4-yl)2-fluoromethoxyiminoacetamido]-3-[6-(2-aminoethylthio)pyrrolo[1,2-a]pyrazinium-2-yl]methyl-3-cephem-4-carboxylat] |
| ≤ 0.006 µg/mL | 0.1 µg/mL (≈ 0.18 µM) | ≤ 0.006 µg/mL | 0.1 µg/mL (≈ 0.18 µM) | 0.78 µg/mL (≈ 1.4 µM) | ≤ 0.006 µg/mL | ≤ 0.006 µg/mL | 0.39 µg/mL (≈ 0.701 µM) | 12.5 µg/mL (≈ 22.5 µM) | ≤ 0.006 µg/mL | ≤ 0.006 µg/mL | 0.78 µg/mL (≈ 1.4 µM) | 0.2 µg/mL (≈ 0.359 µM) | ≤ 0.006 µg/mL | 0.05 µg/mL (≈ 0.0898 µM) | 0.025 µg/mL (≈ 0.0449 µM) | 0.012 µg/mL (≈ 0.0216 µM) | 0.012 µg/mL (≈ 0.0216 µM) | 3.13 µg/mL (≈ 5.62 µM) | 0.39 µg/mL (≈ 0.701 µM) | CON=C(C(=O)NC1C(=O)N2C(C(=O)[O-])=C(C[n+]3ccn4c(C(N)=O)ccc4c3)CSC12)c1csc(N)n1 (stereo not drawn) [Ex. 15, 7-β-[(Z)-2-(2-aminothiazol-4-yl)-2-methoxyiminoacetamido]-3-(6-carbamoylpyrrolo[1,2-a]pyrazinium-2-yl)methyl-3-cephem-4-carboxylate] |
| 0.012 µg/mL (≈ 0.0222 µM) | 0.78 µg/mL (≈ 1.44 µM) | 0.012 µg/mL (≈ 0.0222 µM) | 0.2 µg/mL (≈ 0.369 µM) | 0.78 µg/mL (≈ 1.44 µM) | ≤ 0.006 µg/mL | 0.012 µg/mL (≈ 0.0222 µM) | 3.13 µg/mL (≈ 5.78 µM) | 25 µg/mL (≈ 46.2 µM) | 0.012 µg/mL (≈ 0.0222 µM) | ≤ 0.006 µg/mL | 1.56 µg/mL (≈ 2.88 µM) | 0.1 µg/mL (≈ 0.185 µM) | 0.025 µg/mL (≈ 0.0462 µM) | 0.2 µg/mL (≈ 0.369 µM) | 0.2 µg/mL (≈ 0.369 µM) | 0.012 µg/mL (≈ 0.0222 µM) | 0.012 µg/mL (≈ 0.0222 µM) | 6.25 µg/mL (≈ 11.5 µM) | 0.2 µg/mL (≈ 0.369 µM) | CCc1c[n+](CC2=C(C(=O)[O-])N3C(=O)[C@@H](NC(=O)/C(=N\OC)c4csc(N)n4)[C@H]3SC2)cc2cccn12 [Ex. 37, 7-β-[(Z)-2-(2-aminothiazol-4-yl)-2-methoxyiminoacetamido]-3-(4-ethylpyrrolo[1,2-a]pyrazinium-2-yl)methyl-3-cephem-4-carboxylate] |
| 0.025 µg/mL (≈ 0.0433 µM) | 0.78 µg/mL (≈ 1.35 µM) | 0.78 µg/mL (≈ 1.35 µM) | 0.78 µg/mL (≈ 1.35 µM) | 1.56 µg/mL (≈ 2.7 µM) | 0.05 µg/mL (≈ 0.0865 µM) | 0.1 µg/mL (≈ 0.173 µM) | 3.13 µg/mL (≈ 5.41 µM) | 6.25 µg/mL (≈ 10.8 µM) | 0.39 µg/mL (≈ 0.675 µM) | 0.025 µg/mL (≈ 0.0433 µM) | 0.78 µg/mL (≈ 1.35 µM) | 0.39 µg/mL (≈ 0.675 µM) | 0.1 µg/mL (≈ 0.173 µM) | 0.2 µg/mL (≈ 0.346 µM) | 0.05 µg/mL (≈ 0.0865 µM) | 0.39 µg/mL (≈ 0.675 µM) | 0.05 µg/mL (≈ 0.0865 µM) | 12.5 µg/mL (≈ 21.6 µM) | 0.78 µg/mL (≈ 1.35 µM) | CO/N=C(\C(=O)N[C@@H]1C(=O)N2C(C(=O)[O-])=C(C[n+]3ccn4ccc(CO)c4c3)CS[C@H]12)c1nc(N)sc1Cl [Ex. 54, 7-β-[(Z)-2-(2-amino-5-chlorothiazol-4-yl)-2-methoxyiminoacetamido]-3-(8-hydroxymethylpyrrolo[1,2-a]-pyrazinium-2-yl)methyl-3-cephem-4-carboxylate] |
